Among the data in patent US11236129B2, “IL-17A binding peptides and medical uses thereof” (Dompe' Farmaceutici S.P.A., priority 2018, dated 2022) are IC50 values, retold here.

The assay concerns the target IL-17RA/IL17RC dimerization induced by IL-17A (Homo sapiens, UniProt Q16552). Description: IL-17RA/IL17RC dimerization assay in response to IL-17A (PathHunter Cytokine Receptor Assay). It counts as cell-based. Particulars: IL-17A at EC80; read-out: IC50 in IL-17RA/IL7RC dimerization assay. In a few lines: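 PathHunter cells with IL-17RA and IL-17RC tagged for β-galactosidase complementation were preincubated 60 min with peptide (1% vehicle). IL-17A was then added at EC80 for 6–16 h at 37 °C, and chemiluminescence was read. Inhibition is relative to the EC80 and vehicle controls.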

Residues, ends and D or L forms follow the SMILES beside them.

IL-17RA/IL17RC dimerization induced by IL-17A, sequence (Q16552 24-155): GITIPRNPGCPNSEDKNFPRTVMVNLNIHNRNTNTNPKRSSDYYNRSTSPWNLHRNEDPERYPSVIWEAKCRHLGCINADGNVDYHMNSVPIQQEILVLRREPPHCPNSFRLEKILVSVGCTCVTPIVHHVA

`CC[C@H](C)[C@H](NC(C)=O)C(=O)N[C@@H](Cc1c[nH]cn1)C(=O)N[C@H](C(=O)N[C@H](C(=O)N[C@H](C(=O)N1CCC[C@H]1C(=O)N[C@@H](C)C(=O)N[C@@H](CC(=O)O)C(=O)N[C@@H](CC(C)C)C(=O)N[C@@H](Cc1c[nH]c2ccccc12)C(=O)N[C@@H](CC(=O)O)C(=O)N[C@@H](Cc1c[nH]c2ccccc12)C(=O)N[C@H](C(=O)N[C@@H](CC(N)=O)C(=O)N[C@@H](CCCCN)C(N)=O)[C@@H](C)CC)C(C)C)[C@@H](C)O)C(C)C` [SEQ ID NO: 183] (Ac-IHVTVPADLWDWINK-NH2): the IC50 is under 10 µM.

As to `CC[C@H](C)[C@H](NC(C)=O)C(=O)N[C@@H](Cc1c[nH]cn1)C(=O)N[C@H](C(=O)N[C@H](C(=O)N[C@@H](Cc1ccccc1)C(=O)N1CCC[C@H]1C(=O)N[C@@H](C)C(=O)N[C@@H](CC(=O)O)C(=O)N[C@@H](CC(C)C)C(=O)N[C@@H](Cc1c[nH]c2ccccc12)C(=O)N[C@@H](CC(=O)O)C(=O)N[C@@H](Cc1c[nH]c2ccccc12)C(=O)N[C@H](C(=O)N[C@@H](CC(N)=O)C(=O)N[C@@H](CCCCN)C(N)=O)[C@@H](C)CC)[C@@H](C)O)C(C)C` [SEQ ID NO: 184] (Ac-IHVTFPADLWDWINK-NH2), the IC50 was under 10 µM.

As to `CC[C@H](C)[C@H](NC(C)=O)C(=O)N[C@@H](Cc1c[nH]cn1)C(=O)N[C@H](C(=O)N[C@H](C(=O)N[C@@H](Cc1ccc(O)cc1)C(=O)N1CCC[C@H]1C(=O)N[C@@H](C)C(=O)N[C@@H](CC(=O)O)C(=O)N[C@@H](CC(C)C)C(=O)N[C@@H](Cc1c[nH]c2ccccc12)C(=O)N[C@@H](CC(=O)O)C(=O)N[C@@H](Cc1c[nH]c2ccccc12)C(=O)N[C@H](C(=O)N[C@@H](CC(N)=O)C(=O)N[C@@H](CCCCN)C(N)=O)[C@@H](C)CC)[C@@H](C)O)C(C)C` [SEQ ID NO: 185] (Ac-IHVTYPADLWDWINK-NH2), the IC50 is under 10 µM.

For `CC[C@H](C)[C@H](NC(C)=O)C(=O)N[C@@H](Cc1c[nH]cn1)C(=O)N[C@H](C(=O)N[C@H](C(=O)N[C@H](C(=O)N[C@@H](C)C(=O)N[C@@H](C)C(=O)N[C@@H](CC(=O)O)C(=O)N[C@@H](CC(C)C)C(=O)N[C@@H](Cc1c[nH]c2ccccc12)C(=O)N[C@@H](CC(=O)O)C(=O)N[C@@H](Cc1c[nH]c2ccccc12)C(=O)N[C@H](C(=O)N[C@@H](CC(N)=O)C(=O)N[C@@H](CCCCN)C(N)=O)[C@@H](C)CC)[C@@H](C)CC)[C@@H](C)O)C(C)C` [SEQ ID NO: 186] (Ac-IHVTIAADLWDWINK-NH2), the IC50 is under 10 µM.

As to `CC[C@H](C)[C@H](NC(C)=O)C(=O)N[C@@H](Cc1c[nH]cn1)C(=O)N[C@H](C(=O)N[C@H](C(=O)N[C@H](C(=O)NCC(=O)N[C@@H](C)C(=O)N[C@@H](CC(=O)O)C(=O)N[C@@H](CC(C)C)C(=O)N[C@@H](Cc1c[nH]c2ccccc12)C(=O)N[C@@H](CC(=O)O)C(=O)N[C@@H](Cc1c[nH]c2ccccc12)C(=O)N[C@H](C(=O)N[C@@H](CC(N)=O)C(=O)N[C@@H](CCCCN)C(N)=O)[C@@H](C)CC)[C@@H](C)CC)[C@@H](C)O)C(C)C` [SEQ ID NO: 187] (Ac-IHVTIGADLWDWINK-NH2), the IC50 was under 10 µM.

In the case of `CC[C@H](C)[C@H](NC(C)=O)C(=O)N[C@@H](Cc1c[nH]cn1)C(=O)N[C@H](C(=O)N[C@H](C(=O)N[C@H](C(=O)N[C@@H](CC(C)C)C(=O)N[C@@H](C)C(=O)N[C@@H](CC(=O)O)C(=O)N[C@@H](CC(C)C)C(=O)N[C@@H](Cc1c[nH]c2ccccc12)C(=O)N[C@@H](CC(=O)O)C(=O)N[C@@H](Cc1c[nH]c2ccccc12)C(=O)N[C@H](C(=O)N[C@@H](CC(N)=O)C(=O)N[C@@H](CCCCN)C(N)=O)[C@@H](C)CC)[C@@H](C)CC)[C@@H](C)O)C(C)C` [SEQ ID NO: 188] (Ac-IHVTILADLWDWINK-NH2), the IC50 was under 10 µM.

Take `CC[C@H](C)[C@H](NC(C)=O)C(=O)N[C@@H](Cc1c[nH]cn1)C(=O)N[C@H](C(=O)N[C@H](C(=O)N[C@H](C(=O)N[C@H](C(=O)N[C@@H](C)C(=O)N[C@@H](CC(=O)O)C(=O)N[C@@H](CC(C)C)C(=O)N[C@@H](Cc1c[nH]c2ccccc12)C(=O)N[C@@H](CC(=O)O)C(=O)N[C@@H](Cc1c[nH]c2ccccc12)C(=O)N[C@H](C(=O)N[C@@H](CC(N)=O)C(=O)N[C@@H](CCCCN)C(N)=O)[C@@H](C)CC)C(C)C)[C@@H](C)CC)[C@@H](C)O)C(C)C` [SEQ ID NO: 189] (Ac-IHVTIVADLWDWINK-NH2): the IC50 is under 10 µM.

For `CC[C@H](C)[C@H](NC(C)=O)C(=O)N[C@@H](Cc1c[nH]cn1)C(=O)N[C@H](C(=O)N[C@H](C(=O)N[C@H](C(=O)N[C@H](C(=O)N[C@@H](C)C(=O)N[C@@H](CC(=O)O)C(=O)N[C@@H](CC(C)C)C(=O)N[C@@H](Cc1c[nH]c2ccccc12)C(=O)N[C@@H](CC(=O)O)C(=O)N[C@@H](Cc1c[nH]c2ccccc12)C(=O)N[C@H](C(=O)N[C@@H](CC(N)=O)C(=O)N[C@@H](CCCCN)C(N)=O)[C@@H](C)CC)[C@@H](C)CC)[C@@H](C)CC)[C@@H](C)O)C(C)C` [SEQ ID NO: 190] (Ac-IHVTIIADLWDWINK-NH2), the IC50 was under 10 µM.

Consider `CC[C@H](C)[C@H](NC(C)=O)C(=O)N[C@@H](Cc1c[nH]cn1)C(=O)N[C@H](C(=O)N[C@H](C(=O)N[C@H](C(=O)N[C@@H](CC(N)=O)C(=O)N[C@@H](C)C(=O)N[C@@H](CC(=O)O)C(=O)N[C@@H](CC(C)C)C(=O)N[C@@H](Cc1c[nH]c2ccccc12)C(=O)N[C@@H](CC(=O)O)C(=O)N[C@@H](Cc1c[nH]c2ccccc12)C(=O)N[C@H](C(=O)N[C@@H](CC(N)=O)C(=O)N[C@@H](CCCCN)C(N)=O)[C@@H](C)CC)[C@@H](C)CC)[C@@H](C)O)C(C)C` [SEQ ID NO: 191] (Ac-IHVTINADLWDWINK-NH2), for which the IC50 was under 10 µM.

Turning to `CC[C@H](C)[C@H](NC(C)=O)C(=O)N[C@@H](Cc1c[nH]cn1)C(=O)N[C@H](C(=O)N[C@H](C(=O)N[C@H](C(=O)N1CCC[C@H]1C(=O)NCC(=O)N[C@@H](CC(=O)O)C(=O)N[C@@H](CC(C)C)C(=O)N[C@@H](Cc1c[nH]c2ccccc12)C(=O)N[C@@H](CC(=O)O)C(=O)N[C@@H](Cc1c[nH]c2ccccc12)C(=O)N[C@H](C(=O)N[C@@H](CC(N)=O)C(=O)N[C@@H](CCCCN)C(N)=O)[C@@H](C)CC)[C@@H](C)CC)[C@@H](C)O)C(C)C` [SEQ ID NO: 192] (Ac-IHVTIPGDLWDWINK-NH2), the IC50 is under 10 µM.

Take `CC[C@H](C)[C@H](NC(C)=O)C(=O)N[C@@H](Cc1c[nH]cn1)C(=O)N[C@H](C(=O)N[C@H](C(=O)N[C@H](C(=O)N1CCC[C@H]1C(=O)N[C@@H](CC(C)C)C(=O)N[C@@H](CC(=O)O)C(=O)N[C@@H](CC(C)C)C(=O)N[C@@H](Cc1c[nH]c2ccccc12)C(=O)N[C@@H](CC(=O)O)C(=O)N[C@@H](Cc1c[nH]c2ccccc12)C(=O)N[C@H](C(=O)N[C@@H](CC(N)=O)C(=O)N[C@@H](CCCCN)C(N)=O)[C@@H](C)CC)[C@@H](C)CC)[C@@H](C)O)C(C)C` [SEQ ID NO: 193] (Ac-IHVTIPLDLWDWINK-NH2): the IC50 is under 10 µM.

As to `CC[C@H](C)[C@H](NC(C)=O)C(=O)N[C@@H](Cc1c[nH]cn1)C(=O)N[C@H](C(=O)N[C@H](C(=O)N[C@H](C(=O)N1CCC[C@H]1C(=O)N1CCC[C@H]1C(=O)N[C@@H](CC(=O)O)C(=O)N[C@@H](CC(C)C)C(=O)N[C@@H](Cc1c[nH]c2ccccc12)C(=O)N[C@@H](CC(=O)O)C(=O)N[C@@H](Cc1c[nH]c2ccccc12)C(=O)N[C@H](C(=O)N[C@@H](CC(N)=O)C(=O)N[C@@H](CCCCN)C(N)=O)[C@@H](C)CC)[C@@H](C)CC)[C@@H](C)O)C(C)C` [SEQ ID NO: 194] (Ac-IHVTIPPDLWDWINK-NH2), the IC50 is under 10 µM.

Take `CC[C@H](C)[C@H](NC(C)=O)C(=O)N[C@@H](Cc1c[nH]cn1)C(=O)N[C@H](C(=O)N[C@H](C(=O)N[C@H](C(=O)N1CCC[C@H]1C(=O)N[C@H](C(=O)N[C@@H](CC(=O)O)C(=O)N[C@@H](CC(C)C)C(=O)N[C@@H](Cc1c[nH]c2ccccc12)C(=O)N[C@@H](CC(=O)O)C(=O)N[C@@H](Cc1c[nH]c2ccccc12)C(=O)N[C@H](C(=O)N[C@@H](CC(N)=O)C(=O)N[C@@H](CCCCN)C(N)=O)[C@@H](C)CC)C(C)C)[C@@H](C)CC)[C@@H](C)O)C(C)C` [SEQ ID NO: 195] (Ac-IHVTIPVDLWDWINK-NH2): the IC50 is under 10 µM.

For `CC[C@H](C)[C@H](NC(C)=O)C(=O)N[C@@H](Cc1c[nH]cn1)C(=O)N[C@H](C(=O)N[C@H](C(=O)N[C@H](C(=O)N1CCC[C@H]1C(=O)N[C@H](C(=O)N[C@@H](CC(=O)O)C(=O)N[C@@H](CC(C)C)C(=O)N[C@@H](Cc1c[nH]c2ccccc12)C(=O)N[C@@H](CC(=O)O)C(=O)N[C@@H](Cc1c[nH]c2ccccc12)C(=O)N[C@H](C(=O)N[C@@H](CC(N)=O)C(=O)N[C@@H](CCCCN)C(N)=O)[C@@H](C)CC)[C@@H](C)CC)[C@@H](C)CC)[C@@H](C)O)C(C)C` [SEQ ID NO: 196] (Ac-IHVTIPIDLWDWINK-NH2), the IC50 was under 10 µM.

Take `CC[C@H](C)[C@H](NC(C)=O)C(=O)N[C@@H](Cc1c[nH]cn1)C(=O)N[C@H](C(=O)N[C@H](C(=O)N[C@H](C(=O)N1CCC[C@H]1C(=O)N[C@@H](CC(N)=O)C(=O)N[C@@H](CC(=O)O)C(=O)N[C@@H](CC(C)C)C(=O)N[C@@H](Cc1c[nH]c2ccccc12)C(=O)N[C@@H](CC(=O)O)C(=O)N[C@@H](Cc1c[nH]c2ccccc12)C(=O)N[C@H](C(=O)N[C@@H](CC(N)=O)C(=O)N[C@@H](CCCCN)C(N)=O)[C@@H](C)CC)[C@@H](C)CC)[C@@H](C)O)C(C)C` [SEQ ID NO: 197] (Ac-IHVTIPNDLWDWINK-NH2): the IC50 was under 10 µM.

Consider `CC[C@H](C)[C@H](NC(C)=O)C(=O)N[C@@H](Cc1c[nH]cn1)C(=O)N[C@H](C(=O)N[C@H](C(=O)N[C@H](C(=O)N1CCC[C@H]1C(=O)N[C@@H](CCC(N)=O)C(=O)N[C@@H](CC(=O)O)C(=O)N[C@@H](CC(C)C)C(=O)N[C@@H](Cc1c[nH]c2ccccc12)C(=O)N[C@@H](CC(=O)O)C(=O)N[C@@H](Cc1c[nH]c2ccccc12)C(=O)N[C@H](C(=O)N[C@@H](CC(N)=O)C(=O)N[C@@H](CCCCN)C(N)=O)[C@@H](C)CC)[C@@H](C)CC)[C@@H](C)O)C(C)C` [SEQ ID NO: 198] (Ac-IHVTIPQDLWDWINK-NH2), for which the IC50 is under 10 µM.
